Data taken from the supplement of paper PMC11451515.

System: NOMO1
Assay: cell viability relative to DMSO control; higher = less cytotoxic
Settings: 48 h
In short: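 NOMO1 or SEM cells were plated at 500 cells/well and P12-Ichikawa cells at 1000 cells/well in 1536-well plates (5 μl), after each leukemia line had been adapted for at least four passages in each medium. Pin dosing delivered library compounds in DMSO at 11 threefold concentrations, 47 μM to 0.79 nM. CellTiter-Glo One luminescence was read after 48 h at 37°C. Viability is reported as a per-plate percentage of DMSO wells, with cell-free wells as background.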

[1] = HPLM + 10% dialyzed FBS, 0.000781 µM
[2] = HPLM + 10% dialyzed FBS, 0.00234 µM
[3] = HPLM + 10% dialyzed FBS, 0.00702 µM
[4] = HPLM + 10% dialyzed FBS, 0.0211 µM
[5] = HPLM + 10% dialyzed FBS, 0.0632 µM
[6] = HPLM + 10% dialyzed FBS, 0.19 µM
[7] = HPLM + 10% dialyzed FBS, 0.569 µM
[8] = HPLM + 10% dialyzed FBS, 1.71 µM
[9] = HPLM + 10% dialyzed FBS, 5.12 µM
[10] = HPLM + 10% dialyzed FBS, 15.4 µM
[11] = HPLM + 10% dialyzed FBS, 46.1 µM
[12] = RPMI 5 mM glucose + 10% FBS, 0.000781 µM
[13] = RPMI 5 mM glucose + 10% FBS, 0.00234 µM
[14] = RPMI 5 mM glucose + 10% FBS, 0.00702 µM
[15] = RPMI 5 mM glucose + 10% FBS, 0.0211 µM
[16] = RPMI 5 mM glucose + 10% FBS, 0.0632 µM
[17] = RPMI 5 mM glucose + 10% FBS, 0.19 µM
[18] = RPMI 5 mM glucose + 10% FBS, 0.569 µM
[19] = RPMI 5 mM glucose + 10% FBS, 1.71 µM
[20] = RPMI 5 mM glucose + 10% FBS, 5.12 µM
[21] = RPMI 5 mM glucose + 10% FBS, 15.4 µM
[22] = RPMI 5 mM glucose + 10% FBS, 46.1 µM
[23] = RPMI 5 mM glucose + 10% dialyzed FBS, 0.000781 µM
[24] = RPMI 5 mM glucose + 10% dialyzed FBS, 0.00234 µM
[25] = RPMI 5 mM glucose + 10% dialyzed FBS, 0.00702 µM
[26] = RPMI 5 mM glucose + 10% dialyzed FBS, 0.0211 µM
[27] = RPMI 5 mM glucose + 10% dialyzed FBS, 0.0632 µM
[28] = RPMI 5 mM glucose + 10% dialyzed FBS, 0.19 µM
[29] = RPMI 5 mM glucose + 10% dialyzed FBS, 0.569 µM
[30] = RPMI 5 mM glucose + 10% dialyzed FBS, 1.71 µM
[31] = RPMI 5 mM glucose + 10% dialyzed FBS, 5.12 µM
[32] = RPMI 5 mM glucose + 10% dialyzed FBS, 15.4 µM
[33] = RPMI 5 mM glucose + 10% dialyzed FBS, 46.1 µM

SMILES	cell viability [1] [%]	cell viability [2] [%]	cell viability [3] [%]	cell viability [4] [%]	cell viability [5] [%]	cell viability [6] [%]	cell viability [7] [%]	cell viability [8] [%]	cell viability [9] [%]	cell viability [10] [%]	cell viability [11] [%]	cell viability [12] [%]	cell viability [13] [%]	cell viability [14] [%]	cell viability [15] [%]	cell viability [16] [%]	cell viability [17] [%]	cell viability [18] [%]	cell viability [19] [%]	cell viability [20] [%]	cell viability [21] [%]	cell viability [22] [%]	cell viability [23] [%]	cell viability [24] [%]	cell viability [25] [%]	cell viability [26] [%]	cell viability [27] [%]	cell viability [28] [%]	cell viability [29] [%]	cell viability [30] [%]	cell viability [31] [%]	cell viability [32] [%]	cell viability [33] [%]
Oc1nc(-c2ccc(C(F)(F)F)cc2)nc2c1CSCC2	125	90.4	96.4	81.1	98	93.4	111	98.4	118	94	100	88.5	88	93.5	91.8	95.5	97.9	96.2	87.6	85.8	104	88.2	92.6	99.8	105	94.3	98.1	102	91.8	102	98.4	99.4	90.4
C=CC(=O)Nc1cc2c(Nc3ccc(F)c(Cl)c3)ncnc2cc1OCCCN1CCOCC1	111	127	121	132	114	104	108	105	76.5	59.1	72.7	123	119	126	124	128	108	104	110	103	88.2	94.3	116	111	117	108	120	109	105	101	80.5	73.4	90.4
CCc1ccc(/C=C2/SC(=S)NC2=O)cc1	70.3	79.1	88	86	74.5	74.2	79.2	79.7	94.3	51.3	92.2	75.7	83.5	81.8	81.9	87.2	83.8	88.1	76.3	93.4	59.9	75	78.2	71.1	83.2	81.4	87.5	73.4	84.3	82.1	85.3	48.6	86.3
O=C(O)C(=O)c1cn(Cc2ccccc2)c2ccc(-c3ccc(OC(F)(F)F)cc3)cc12	101	102	105	107	108	108	110	81.4	91.3	90.6	88.5	93.5	94.8	90.3	109	96	100	104	89.6	97.8	96.1	89.5	106	96.8	104	119	97.8	95.3	100	85.2	93	98.4	80.8
CCCCOc1c(C(=O)c2c(F)cc(C)cc2F)cnc2[nH]ncc12	95.9	113	107	103	103	109	103	119	89.1	96.2	68.9	89.4	98.2	82.7	96.7	98.7	94	95.6	93.6	98.9	90.3	79.1	97.6	96.3	100	92.6	92.7	85.5	83.1	86.7	70.6	88.4	84.3
CC(C)(O)CC(=O)NCCn1ccc2ncnc(Nc3ccc(Oc4cccc(C(F)(F)F)c4)c(Cl)c3)c21	96.8	109	107	120	89.5	98.9	107	85.5	80.5	54.7	33.9	95.1	109	103	105	101	97.9	111	95.3	96.8	79	53.6	106	100	95.3	108	99.8	109	107	97.1	81.9	67.8	44.1
O=C(CCCN1CCN(c2ccc(F)cc2)CC1)NC1c2ccccc2CSc2ccccc21 (stereo not drawn)	–	–	–	–	–	–	–	–	–	–	–	135	109	108	125	126	117	112	117	74	103	71.1	121	120	125	114	118	112	113	106	99.9	90.8	58
Cc1coc2c1C(=O)C(=O)c1c-2ccc2c1CCCC2(C)C	111	98.8	126	118	107	105	92.9	95.5	82	105	96.8	89.8	98.7	96.8	104	116	103	99.9	83.5	83.5	95.1	90.8	97.4	104	95.7	98.9	103	88.8	88.4	87.5	88.4	92.5	93.1
